Experimental data published in EP0584797A2, “Novel cephalosporin compounds and processes for the preparation thereof” (LUCKY LTD., priority 1992, dated 1994).
In brackets after ≈: the same amount, converted by molar mass.

Columns and labels:
Assay in all cases: minimal inhibitory concentration, two-fold agar dilution
Assay type in all cases: cell-based
[1] = tested on: Staphylococcus aureus ATCC 10537; details: ATCC10537, Muller-Hinton agar, 37°C, 20 hours, read-out: MIC values against the standard strains
Procedure, shortened: (§1)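 Compounds were serially diluted two-fold into Mueller-Hinton agar, and each plate was spot-inoculated with the test strain at 10⁷ CFU per ml. Plates were incubated at 37°C for 20 hours before MIC values were read.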

[2] = tested on: Pseudomonas aeruginosa ATCC 10145; details: ATCC10145, Muller-Hinton agar, 37°C, 20 hours, read-out: MIC values against the standard strains
Procedure, shortened: as §1

[3] = tested on: Shigella flexneri ATCC 11836; details: ATCC11836, Muller-Hinton agar, 37°C, 20 hours, read-out: MIC values against the standard strains
Procedure, shortened: as §1

[4] = tested on: Providencia rettgeri ATCC 9250; details: ATCC9250, Muller-Hinton agar, 37°C, 20 hours, read-out: MIC values against the standard strains
Procedure, shortened: as §1

[5] = tested on: Streptococcus faecalis ATCC 29212; details: Enterococcus faecalis, ATCC29212; Muller-Hinton agar; 37°C; 20 hours; read-out: MIC values against the standard strains
Procedure, shortened: as §1

[6] = tested on: Staphylococcus aureus ATCC 6538p; details: ATCC6538P, Muller-Hinton agar, 37°C, 20 hours, read-out: MIC values against the standard strains
Procedure, shortened: as §1

[7] = tested on: Staphylococcus epidermidis ATCC 12228; details: ATCC12228, Muller-Hinton agar, 37°C, 20 hours, read-out: MIC values against the standard strains
Procedure, shortened: as §1

[8] = tested on: Bacillus cereus ATCC 11778; details: ATCC11778, Muller-Hinton agar, 37°C, 20 hours, read-out: MIC values against the standard strains
Procedure, shortened: as §1

[9] = tested on: Escherichia coli ATCC 25922; details: ATCC25922, Muller-Hinton agar, 37°C, 20 hours, read-out: MIC values against the standard strains
Procedure, shortened: as §1

[10] = tested on: Pseudomonas aeruginosa ATCC 25619; details: ATCC25619, Muller-Hinton agar, 37°C, 20 hours, read-out: MIC values against the standard strains
Procedure, shortened: as §1

[11] = tested on: Shigella sonnei ATCC 11060; details: ATCC11060, Muller-Hinton agar, 37°C, 20 hours, read-out: MIC values against the standard strains
Procedure, shortened: as §1

[12] = tested on: Proteus vulgaris ATCC 6059; details: ATCC6059, Muller-Hinton agar, 37°C, 20 hours, read-out: MIC values against the standard strains
Procedure, shortened: as §1

[13] = tested on: Citrobacter freundii ATCC 8090; details: ATCC8090, Muller-Hinton agar, 37°C, 20 hours, read-out: MIC values against the standard strains
Procedure, shortened: as §1

[14] = tested on: Enterobacter cloacae ATCC 27508; details: ATCC27508, Muller-Hinton agar, 37°C, 20 hours, read-out: MIC values against the standard strains
Procedure, shortened: as §1

[15] = tested on: Bacillus megaterium ATCC 9885; details: Priestia megaterium, ATCC9885; Muller-Hinton agar; 37°C; 20 hours; read-out: MIC values against the standard strains
Procedure, shortened: as §1

[16] = tested on: Klebsiella pneumoniae ATCC 10031; details: ATCC10031, Muller-Hinton agar, 37°C, 20 hours, read-out: MIC values against the standard strains
Procedure, shortened: as §1

[17] = tested on: Morganella morganii ATCC 8076h; details: ATCC8076H, Muller-Hinton agar, 37°C, 20 hours, read-out: MIC values against the standard strains
Procedure, shortened: as §1

[18] = tested on: Serratia marcescens ATCC 27117; details: ATCC27117, Muller-Hinton agar, 37°C, 20 hours, read-out: MIC values against the standard strains
Procedure, shortened: as §1

[19] = tested on: Micrococcus luteus ATCC 9341; details: ATCC9341, Muller-Hinton agar, 37°C, 20 hours, read-out: MIC values against the standard strains
Procedure, shortened: as §1

[20] = tested on: Proteus mirabilis ATCC 25933; details: ATCC25933, Muller-Hinton agar, 37°C, 20 hours, read-out: MIC values against the standard strains
Procedure, shortened: as §1

[21] = tested on: Acinetobacter calcoaceticus ATCC 15437; details: ATCC15437, Muller-Hinton agar, 37°C, 20 hours, read-out: MIC values against the standard strains
Procedure, shortened: as §1

[22] = tested on: Pseudomonas aeruginosa ATCC 27853; details: ATCC27853, Muller-Hinton agar, 37°C, 20 hours, read-out: MIC values against the standard strains
Procedure, shortened: as §1

[23] = tested on: Salmonella typhimurium ATCC 14028; details: Salmonella enterica; Muller-Hinton agar; 37°C; 20 hours; read-out: MIC values against the standard strains
Procedure, shortened: as §1

[24] = tested on: Escherichia coli ATCC 10536; details: ATCC10536, Muller-Hinton agar, 37°C, 20 hours, read-out: MIC values against the standard strains
Procedure, shortened: as §1

[25] = tested on: Enterobacter aerogenes ATCC 29751; details: Klebsiella aerogenes, ATCC29751; Muller-Hinton agar; 37°C; 20 hours; read-out: MIC values against the standard strains
Procedure, shortened: as §1

SMILES	MIC [1]	MIC [2]	MIC [3]	MIC [4]	MIC [5]	MIC [6]	MIC [7]	MIC [8]	MIC [9]	MIC [10]	MIC [11]	MIC [12]	MIC [13]	MIC [14]	MIC [15]	MIC [16]	MIC [17]	MIC [18]	MIC [19]	MIC [20]	further results
CCO/N=C(\C(=O)N[C@@H]1C(=O)N2C(C(=O)[O-])=C(CSc3nc(N)c(N)c(N)[n+]3CC)CS[C@H]12)c1nsc(N)n1 [Example 15, 7-[(Z)-2-(5-amino-1,2,4-thiadiazol-3-yl)-2-(ethoxyimino)acetamido]-3-(4,5,6-triamino-1-ethylpyrimidinium-2-yl)thiomethyl-3-cephem-4-carboxylate]	0.25 µg/mL (≈ 0.42 µM)	8 µg/mL (≈ 13.4 µM)	0.25 µg/mL (≈ 0.42 µM)	≤ 0.008 µg/mL	32 µg/mL (≈ 53.7 µM)	0.5 µg/mL (≈ 0.839 µM)	0.25 µg/mL (≈ 0.42 µM)	32 µg/mL (≈ 53.7 µM)	0.063 µg/mL (≈ 0.106 µM)	1 µg/mL (≈ 1.68 µM)	0.25 µg/mL (≈ 0.42 µM)	1 µg/mL (≈ 1.68 µM)	0.5 µg/mL (≈ 0.839 µM)	0.031 µg/mL (≈ 0.052 µM)	0.13 µg/mL (≈ 0.218 µM)	0.016 µg/mL (≈ 0.0269 µM)	≤ 0.008 µg/mL	0.5 µg/mL (≈ 0.839 µM)	0.063 µg/mL (≈ 0.106 µM)	1 µg/mL (≈ 1.68 µM)	MIC [21]: 4 µg/mL (≈ 6.71 µM); MIC [22]: 2 µg/mL (≈ 3.36 µM); MIC [23]: 0.5 µg/mL (≈ 0.839 µM); MIC [24]: 0.063 µg/mL (≈ 0.106 µM); MIC [25]: 0.063 µg/mL (≈ 0.106 µM)
C[n+]1ccc(N)nc1SCC1=C(C(=O)[O-])N2C(=O)[C@@H](NC(=O)/C(=N\O)c3csc(N)n3)[C@H]2SC1 [Example 10, 7-[(Z)-2-(2-aminothiazol-4-yl)-2-oxyiminoacetamido]-3-(4-amino-1-methylpyrimidinium-2-yl)thiomethyl-3-cephem-4-carboxylate]	0.25 µg/mL (≈ 0.478 µM)	> 128 µg/mL	0.016 µg/mL (≈ 0.0306 µM)	≤ 0.008 µg/mL	8 µg/mL (≈ 15.3 µM)	0.5 µg/mL (≈ 0.957 µM)	0.063 µg/mL (≈ 0.121 µM)	32 µg/mL (≈ 61.2 µM)	0.25 µg/mL (≈ 0.478 µM)	128 µg/mL (≈ 245 µM)	1 µg/mL (≈ 1.91 µM)	1 µg/mL (≈ 1.91 µM)	0.063 µg/mL (≈ 0.121 µM)	0.016 µg/mL (≈ 0.0306 µM)	0.13 µg/mL (≈ 0.249 µM)	0.25 µg/mL (≈ 0.478 µM)	0.016 µg/mL (≈ 0.0306 µM)	0.5 µg/mL (≈ 0.957 µM)	0.25 µg/mL (≈ 0.478 µM)	0.25 µg/mL (≈ 0.478 µM)	MIC [21]: 0.063 µg/mL (≈ 0.121 µM); MIC [22]: > 128 µg/mL; MIC [23]: 0.5 µg/mL (≈ 0.957 µM); MIC [24]: 0.25 µg/mL (≈ 0.478 µM); MIC [25]: 0.063 µg/mL (≈ 0.121 µM)
COc1cc(N)nc(SCC2=C(C(=O)[O-])N3C(=O)[C@@H](NC(=O)/C(=N\OC(C)(C)C(=O)O)c4csc(N)n4)[C@H]3SC2)[n+]1C [Example 17, 7-[(Z)-2-(2-aminothiazol-4-yl)-2-(carboxyprop-2-oxyimino)acetamido]-3-(4-amino-6-methoxy-1-methylpyrimidinium-2-yl)thiomethyl-3-cephem-4-carboxylate]	1 µg/mL (≈ 1.57 µM)	4 µg/mL (≈ 6.26 µM)	0.031 µg/mL (≈ 0.0485 µM)	0.13 µg/mL (≈ 0.204 µM)	> 128 µg/mL	4 µg/mL (≈ 6.26 µM)	1 µg/mL (≈ 1.57 µM)	128 µg/mL (≈ 200 µM)	0.13 µg/mL (≈ 0.204 µM)	1 µg/mL (≈ 1.57 µM)	0.13 µg/mL (≈ 0.204 µM)	0.13 µg/mL (≈ 0.204 µM)	0.13 µg/mL (≈ 0.204 µM)	0.016 µg/mL (≈ 0.0251 µM)	0.25 µg/mL (≈ 0.391 µM)	0.063 µg/mL (≈ 0.0986 µM)	0.016 µg/mL (≈ 0.0251 µM)	0.25 µg/mL (≈ 0.391 µM)	0.5 µg/mL (≈ 0.783 µM)	0.063 µg/mL (≈ 0.0986 µM)	MIC [21]: 2 µg/mL (≈ 3.13 µM); MIC [22]: 2 µg/mL (≈ 3.13 µM); MIC [23]: 0.25 µg/mL (≈ 0.391 µM); MIC [24]: 0.063 µg/mL (≈ 0.0986 µM); MIC [25]: 4 µg/mL (≈ 6.26 µM)
CO/N=C(\C(=O)N[C@@H]1C(=O)N2C(C(=O)[O-])=C(CSc3nc(N)c(N)c(N)[n+]3C)CS[C@H]12)c1csc(N)n1 [Example 7, 7-[(Z)-2-(2-aminothiazol-4-yl)-2-(methoxyimino)acetamido]-3-(4,5,6-triamino-1-methylpyrimidinium-2-yl)thiomethyl-3-cephem-4-carboxylate]	0.13 µg/mL (≈ 0.229 µM)	32 µg/mL (≈ 56.5 µM)	0.031 µg/mL (≈ 0.0547 µM)	≤ 0.008 µg/mL	128 µg/mL (≈ 226 µM)	0.13 µg/mL (≈ 0.229 µM)	0.13 µg/mL (≈ 0.229 µM)	16 µg/mL (≈ 28.2 µM)	0.063 µg/mL (≈ 0.111 µM)	4 µg/mL (≈ 7.06 µM)	0.13 µg/mL (≈ 0.229 µM)	0.13 µg/mL (≈ 0.229 µM)	0.063 µg/mL (≈ 0.111 µM)	0.063 µg/mL (≈ 0.111 µM)	0.13 µg/mL (≈ 0.229 µM)	0.016 µg/mL (≈ 0.0282 µM)	≤ 0.008 µg/mL	0.13 µg/mL (≈ 0.229 µM)	0.063 µg/mL (≈ 0.111 µM)	0.13 µg/mL (≈ 0.229 µM)	MIC [21]: 4 µg/mL (≈ 7.06 µM); MIC [22]: 32 µg/mL (≈ 56.5 µM); MIC [23]: 0.13 µg/mL (≈ 0.229 µM); MIC [24]: 0.063 µg/mL (≈ 0.111 µM); MIC [25]: ≤ 0.008 µg/mL
CC[n+]1c(SCC2=C(C(=O)[O-])N3C(=O)[C@@H](NC(=O)/C(=N\OC(C)(C)C(=O)O)c4csc(N)n4)[C@H]3SC2)nc(N)c(N)c1N [Example 11, 7-[(Z)-2-(2-aminothiazol-4-yl)-2-(carboxyprop-2-oxyimino)acetamido]-3-(4,5,6-triamino-1-ethylpyrimidinium-2-yl)thiomethyl-3-cephem-4-carboxylate]	2 µg/mL (≈ 3.06 µM)	8 µg/mL (≈ 12.3 µM)	0.063 µg/mL (≈ 0.0965 µM)	0.063 µg/mL (≈ 0.0965 µM)	> 128 µg/mL	4 µg/mL (≈ 6.13 µM)	2 µg/mL (≈ 3.06 µM)	128 µg/mL (≈ 196 µM)	0.063 µg/mL (≈ 0.0965 µM)	2 µg/mL (≈ 3.06 µM)	1 µg/mL (≈ 1.53 µM)	0.25 µg/mL (≈ 0.383 µM)	0.13 µg/mL (≈ 0.199 µM)	0.031 µg/mL (≈ 0.0475 µM)	0.13 µg/mL (≈ 0.199 µM)	0.063 µg/mL (≈ 0.0965 µM)	≤ 0.008 µg/mL	1 µg/mL (≈ 1.53 µM)	0.13 µg/mL (≈ 0.199 µM)	0.25 µg/mL (≈ 0.383 µM)	MIC [21]: 8 µg/mL (≈ 12.3 µM); MIC [22]: 4 µg/mL (≈ 6.13 µM); MIC [23]: 1 µg/mL (≈ 1.53 µM); MIC [24]: 0.031 µg/mL (≈ 0.0475 µM); MIC [25]: 2 µg/mL (≈ 3.06 µM)
